Measurements from patent US9840513B2 (AbbVie S.à.r.l., priority 2015, dated 2017).

Legend:
[1] = target: T1, F508delCFTR in primary hBE cells with F508del/F508del CFTR mutation (Homo sapiens, UniProt P13569, DEL508-508); assay: Transepithelial Clamp Circuit on Human Bronchial Epithelial Cells Conductance Assay (hBE-TECC); assay type: cell-based; conditions: for EC50: primary hBE cells F508del/F508del, 18-24 hours at 37° C., equivalent short circuit current, 6 concentrations
T1 construct: cells isolated from CF patients with the homozygous mutation; endogenous in cells; host or cells: primary human bronchial epithelial (hBE) cells from F508del/F508del CF patients
Excerpt: Transepithelial Clamp Circuit on Human Bronchial Epithelial Cells Conductance Assay:
A cell based assay using the primary human bronchial epithelial cells (hBE) was used as a secondary assay to test novel F508delCFTR correctors for their activity on primary hBE cells with F508del/F508del CFTR mutation. The assay used a TECC-24 (Transepithelial Clamp Circuit for 24 wells) instrument that measures the functionality of the mutated channel by measuring the equivalent short circuit current (Ieq) generated by the polarized epithelial cells. The instrument works by measuring the transepithelial potential difference (Vt) and transepithelial resistance (Rt) in an open circuit format, and the Ieq is calculated by using Ohms law (Ieq=Vt/Rt). The assay was run in a 24-well format and all 24-wells were measured at the same time point giving a higher throughput for this assay.
Primary human bronchial epithelial (hBE) cells from F508del/F508delCFTR patients were expanded from 1×10^6 to 250×10^6 cells (Neuberger T, Burton B, Clark H and VanGoor F; Cystic Fibrosis, Methods in Mole Biol 741; eds. Amaral M D and Kunzelmann K, 2011). For this purpose, cells isolated from CF patients with the homozygous mutation were seeded onto 24 well Corning (Cat #3378) filter plates that were coated with 3T3 conditioned media and grown at an air-liquid interface for 35 days using an Ultroser® G supplemented differentiation media. Apical surface mucus was removed 72 hours before the experiment using 3 mM dithiothreitol (DTT) in phosphate buffered saline (PBS). The apical surface was washed again 24 hours before the experiment using PBS. The cells were incubated with the desired dose response of the corrector compounds 18-24 hours at 37° C., 5% CO2. The corrector compounds are only added on the basolateral side of the epithelial cells.
On the day of measuring the corrector activity on the TECC, the cells were switched into a bicarbonate and serum free F-12 Coon's medium and allowed to equilibrate for 90 minutes in a CO2 free incubator. At the time of measurement, the apical and basolateral sides of the filter were bathed with the F-12 Coon's modification media (with 20 mM 4-(2-hydroxyethyl)-1-piperazineethanesulfonic acid (HEPES), pH 7.4 (using 1 M tris(hydroxymethyl)aminomethane (Tris)), and the measurements were made at 36.5° C. Transepithelial voltage (Vt) and transepithelial resistance (Rt) were measured using a 24 channel transepithelial current clamp (TECC-24). Current responses to the sequential addition of benzamil (apical 6 μM addition; for inhibiting epithelial ENaC channel), forskolin (apical and basolateral 10 μM addition; for activating the CFTR channel), control potentiator (N-(3-carbamoyl-5,5,7,7-tetramethyl-4,7-dihydro-5H-thieno[2,3-c]pyran-2-yl)-1H-pyrazole-5-carboxamide; apical and basolateral […] addition; for potentiating the CFTR channel) and bumetanide (basolateral 20 μM addition; for inhibiting the Na:2Cl:K co-transporter, an indirect measure of inhibiting the Cl-secretion driven by CFTR channel) were measured.
All plates contained negative controls (dimethyl sulfoxide, DMSO) which coupled with the control potentiator (N-(3-carbamoyl-5,5,7,7-tetramethyl-4,7-dihydro-5H-thieno[2,3-c]pyran-2-yl)-1H-pyrazole-5-carboxamide) sets the null response and positive controls (3 μM of 3-[(2R,4R)-4-({[1-(2,2-difluoro-1,3-benzodioxol-5-yl)cyclopropyl]carbonyl}amino)-7-methoxy-3,4-dihydro-2H-chromen-2-yl]benzoic acid) coupled with the control potentiator sets the 100% response to measure the correction of the mutated CFTR channel. The maximum percent activity is reported relative to the positive control value.
The % activity measured at each of the 6 test concentrations of the test compound was normalized to the on-plate positive control using the following formula: % activity=[[…]]*100 […]

[2] = target: T2, F508delCFTR cell surface expression in CFBE41o-F508delCFTR-HRP cells (Homo sapiens, UniProt P13569, DEL508-508); assay: Cell Surface Expression-Horse Radish Peroxidase (CSE-HRP) Assay; assay type: cell-based; conditions: for EC50: CFBE41o-F508delCFTR-HRP cells, 18-24 hours at 33° C., 8-point curve, highest concentration 20 μM; for Maximum % activity (%): maximum at any tested concentration, normalized to on-plate positive control (3 μM)
T2 construct: fused on or other part: Horseradish peroxidase (HRP) reporter inserted in the fourth exofacial (extracellular) loop of CFTR; expression is doxycycline-inducible
Summary of the method: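 Correctors incubated 18-24 h at 33 °C on doxycycline-induced (0.5 μg/mL, 72 h) CFBE41o-F508delCFTR-HRP cells, 3-fold series from 20 μM. After DPBS washes, luminol luminescence read; activity expressed relative to DMSO and a 3 μM positive control, EC50 fitted from triplicate plates.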

[3] = relative to positive control (3 μM) coupled with control potentiator

T1 sequence (P13569 with tags, fused parts or gaps DEL508-508): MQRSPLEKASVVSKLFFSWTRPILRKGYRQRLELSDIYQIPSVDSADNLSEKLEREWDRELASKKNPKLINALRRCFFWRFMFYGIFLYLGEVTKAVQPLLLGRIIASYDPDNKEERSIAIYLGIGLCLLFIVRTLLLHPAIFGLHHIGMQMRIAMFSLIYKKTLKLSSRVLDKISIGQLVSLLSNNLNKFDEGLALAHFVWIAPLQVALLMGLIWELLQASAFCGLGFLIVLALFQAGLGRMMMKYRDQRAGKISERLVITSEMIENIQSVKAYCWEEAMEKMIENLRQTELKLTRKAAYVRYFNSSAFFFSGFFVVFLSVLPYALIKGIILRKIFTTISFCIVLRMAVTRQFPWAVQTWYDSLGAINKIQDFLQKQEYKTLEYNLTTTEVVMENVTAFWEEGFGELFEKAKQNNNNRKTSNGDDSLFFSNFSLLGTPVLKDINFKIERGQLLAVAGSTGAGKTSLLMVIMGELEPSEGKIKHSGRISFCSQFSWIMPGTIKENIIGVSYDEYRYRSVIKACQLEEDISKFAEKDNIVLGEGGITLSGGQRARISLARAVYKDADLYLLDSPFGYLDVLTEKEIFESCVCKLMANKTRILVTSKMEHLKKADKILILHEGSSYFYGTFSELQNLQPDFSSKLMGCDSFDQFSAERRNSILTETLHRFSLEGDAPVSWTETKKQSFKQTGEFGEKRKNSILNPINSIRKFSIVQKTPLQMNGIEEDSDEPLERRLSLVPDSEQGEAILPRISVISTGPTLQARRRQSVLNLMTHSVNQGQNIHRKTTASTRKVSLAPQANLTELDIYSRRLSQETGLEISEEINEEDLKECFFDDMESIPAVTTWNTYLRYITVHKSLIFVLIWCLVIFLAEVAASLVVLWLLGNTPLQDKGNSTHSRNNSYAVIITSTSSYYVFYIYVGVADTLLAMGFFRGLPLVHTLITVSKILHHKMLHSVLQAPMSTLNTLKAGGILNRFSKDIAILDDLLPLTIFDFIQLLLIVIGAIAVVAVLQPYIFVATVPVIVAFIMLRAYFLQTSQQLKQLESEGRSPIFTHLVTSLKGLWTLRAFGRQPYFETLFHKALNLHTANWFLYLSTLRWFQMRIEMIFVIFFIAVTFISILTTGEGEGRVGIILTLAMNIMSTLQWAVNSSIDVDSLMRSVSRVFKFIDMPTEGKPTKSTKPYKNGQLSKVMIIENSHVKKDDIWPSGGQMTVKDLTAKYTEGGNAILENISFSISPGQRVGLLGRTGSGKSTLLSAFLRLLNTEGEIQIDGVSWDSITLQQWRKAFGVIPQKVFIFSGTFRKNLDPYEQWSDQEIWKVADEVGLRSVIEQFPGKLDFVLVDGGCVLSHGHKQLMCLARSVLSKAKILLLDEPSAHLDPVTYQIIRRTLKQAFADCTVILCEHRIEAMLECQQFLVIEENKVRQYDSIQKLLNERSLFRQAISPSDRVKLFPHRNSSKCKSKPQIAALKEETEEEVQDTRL
T2 sequence (P13569 with tags, fused parts or gaps DEL508-508 limits assumed): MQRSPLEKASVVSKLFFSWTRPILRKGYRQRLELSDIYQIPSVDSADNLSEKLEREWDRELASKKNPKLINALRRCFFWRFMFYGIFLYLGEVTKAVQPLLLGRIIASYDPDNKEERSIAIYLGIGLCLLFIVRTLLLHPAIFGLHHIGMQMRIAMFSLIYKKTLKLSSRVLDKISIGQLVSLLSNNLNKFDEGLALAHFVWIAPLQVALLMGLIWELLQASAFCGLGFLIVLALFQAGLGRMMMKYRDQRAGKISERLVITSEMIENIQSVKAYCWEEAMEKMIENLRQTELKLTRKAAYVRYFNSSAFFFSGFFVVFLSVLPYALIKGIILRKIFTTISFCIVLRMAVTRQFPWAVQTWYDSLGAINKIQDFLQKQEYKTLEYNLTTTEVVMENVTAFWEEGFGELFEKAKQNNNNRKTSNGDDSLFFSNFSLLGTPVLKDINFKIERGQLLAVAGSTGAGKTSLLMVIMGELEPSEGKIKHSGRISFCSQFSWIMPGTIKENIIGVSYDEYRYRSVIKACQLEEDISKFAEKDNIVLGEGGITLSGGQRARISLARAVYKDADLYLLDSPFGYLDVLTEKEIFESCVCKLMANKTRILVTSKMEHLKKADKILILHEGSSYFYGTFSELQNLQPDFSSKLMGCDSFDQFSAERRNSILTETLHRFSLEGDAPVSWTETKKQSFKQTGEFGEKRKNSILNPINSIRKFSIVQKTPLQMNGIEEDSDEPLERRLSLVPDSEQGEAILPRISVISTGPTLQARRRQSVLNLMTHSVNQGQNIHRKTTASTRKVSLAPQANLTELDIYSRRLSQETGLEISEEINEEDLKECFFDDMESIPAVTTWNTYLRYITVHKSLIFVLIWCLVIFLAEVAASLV
T2 sequence (P13569 919-1480 limits assumed, stated change not applied): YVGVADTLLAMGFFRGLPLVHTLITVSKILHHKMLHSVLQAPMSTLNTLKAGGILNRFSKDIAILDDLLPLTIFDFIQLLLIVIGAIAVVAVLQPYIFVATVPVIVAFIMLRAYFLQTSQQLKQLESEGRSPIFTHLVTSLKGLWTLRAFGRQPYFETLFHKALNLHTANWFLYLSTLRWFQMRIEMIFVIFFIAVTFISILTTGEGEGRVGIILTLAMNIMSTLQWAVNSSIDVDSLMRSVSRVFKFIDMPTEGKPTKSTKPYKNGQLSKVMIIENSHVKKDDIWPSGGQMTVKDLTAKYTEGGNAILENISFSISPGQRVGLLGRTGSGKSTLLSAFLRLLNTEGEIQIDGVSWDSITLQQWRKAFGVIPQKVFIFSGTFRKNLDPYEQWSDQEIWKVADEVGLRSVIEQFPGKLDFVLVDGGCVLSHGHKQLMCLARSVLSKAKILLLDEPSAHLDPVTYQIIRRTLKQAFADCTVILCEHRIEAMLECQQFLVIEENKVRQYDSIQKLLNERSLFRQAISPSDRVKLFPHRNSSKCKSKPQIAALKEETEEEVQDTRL

| EC50 [1] | Maximum % activity (%) [1, 3] | EC50 [2] | Maximum % activity (%) [2] | Maximum % activity (%) ([1]; testing concentration 3 μM) | Maximum % activity (%) ([1]; testing concentration 1 μM) | Structure (SMILES) |
| --- | --- | --- | --- | --- | --- | --- |
| 745 nM | 48% | 910 nM | 99% |  |  | C[C@]1(C(=O)Nc2cc3cc(C4(CO)CC4)n(C[C@@H](O)CO)c3cc2F)COc2cc3c(cc21)OC(F)(F)O3 [Example 136, (7R)—N-{1-[(2R)-2,3-dihydroxypropyl]-6-fluoro-2-[1-(hydroxymethyl)cyclopropyl]-1H-indol-5-yl}-2,2-difluoro-7-methyl-6,7-dihydro-2H-furo[2,3-f][1,3]benzodioxole-7-carboxamide] |
| 32 nM | 105% | 90 nM | 116% |  |  | COc1ccc2c(c1)O[C@@H](c1ccc(C(=O)N3C[C@@H](O)[C@H](O)C3)cn1)C[C@H]2NC(=O)[C@@]1(C)COc2cc3c(cc21)OC(F)(F)O3 [Example 248, (7R)—N-[(2R,4R)-2-{5-[(3R,4R)-3,4-dihydroxypyrrolidine-1-carbonyl]pyridin-2-yl}-7-methoxy-3,4-dihydro-2H-1-benzopyran-4-yl]-2,2-difluoro-7-methyl-6,7-dihydro-2H-furo[2,3-f][1,3]benzodioxole-7-carboxamide] |
| 830 nM | 24% | 2200 nM | 44% |  |  | C[C@]1(C(=O)N[C@H]2C[C@@H]([C@H]3CC[C@H](C(=O)O)CC3)Oc3cc(OC(F)(F)F)ccc32)COc2cc3c(cc21)OC(F)(F)O3 [Example 149, trans-4-[(2S,4S)-4-{[(7R)-2,2-difluoro-7-methyl-6,7-dihydro-2H-furo[2,3-f][1,3]benzodioxole-7-carbonyl]amino}-7-(trifluoromethoxy)-3,4-dihydro-2H-1-benzopyran-2-yl]cyclohexane-1-carboxylic acid] |
| 6 nM | 105% | 40 nM | 130% |  |  | COc1ccc2c(c1)O[C@@H](c1ccc(=O)[nH]n1)C[C@H]2NC(=O)[C@@]1(C)COc2cc3c(cc21)OC(F)(F)O3 [Example 197, (7R)-2,2-difluoro-N-[(2R,4R)-7-methoxy-2-(6-oxo-1,6-dihydropyridazin-3-yl)-3,4-dihydro-2H-1-benzopyran-4-yl]-7-methyl-6,7-dihydro-2H-furo[2,3-f][1,3]benzodioxole-7-carboxamide] |
|  |  | 810 nM | 82% | 54% |  | C[C@]1(C(=O)Nc2cc(-c3ccccc3)nn(C[C@@H](O)CO)c2=O)COc2cc3c(cc21)OC(F)(F)O3 [Example 27, (7R)—N-{2-[(2R)-2,3-dihydroxypropyl]-3-oxo-6-phenyl-2,3-dihydropyridazin-4-yl}-2,2-difluoro-7-methyl-6,7-dihydro-2H-furo[2,3-f][1,3]benzodioxole-7-carboxamide] |
| 11 nM | 84% | 30 nM | 129% |  |  | C[C@]1(C(=O)N[C@@H]2C[C@H](C3(C(=O)O)CC3)Oc3cc(OC(F)(F)F)ccc32)COc2cc3c(cc21)OC(F)(F)O3 [Example 166, 1-[(2R,4R)-4-{[(7R)-2,2-difluoro-7-methyl-6,7-dihydro-2H-furo[2,3-f][1,3]benzodioxole-7-carbonyl]amino}-7-(trifluoromethoxy)-3,4-dihydro-2H-1-benzopyran-2-yl]cyclopropane-1-carboxylic acid] |
| 20 nM | 102% | 92 nM | 137% |  |  | COc1ccc2c(c1)O[C@@H]([C@H]1CC[C@H](C(=O)O)CC1)C[C@H]2NC(=O)[C@@]1(C)COc2cc3c(cc21)OC(F)(F)O3 [Example 155, trans-4-[(2R,4R)-4-{[(7R)-2,2-difluoro-7-methyl-6,7-dihydro-2H-furo[2,3-f][1,3]benzodioxole-7-carbonyl]amino}-7-methoxy-3,4-dihydro-2H-1-benzopyran-2-yl]cyclohexane-1-carboxylic acid] |
| 0.831 nM | 91% | 3 nM | 118% |  |  | C[C@]1(C(=O)N[C@@H]2C[C@H](c3ccc(C(=O)O)cn3)Oc3cc(OC(F)(F)F)ccc32)COc2cc3c(cc21)OC(F)(F)O3 [Example 145, 6-[(2R,4R)-4-{[(7R)-2,2-difluoro-7-methyl-6,7-dihydro-2H-furo[2,3-f][1,3]benzodioxole-7-carbonyl]amino}-7-(trifluoromethoxy)-3,4-dihydro-2H-1-benzopyran-2-yl]pyridine-3-carboxylic acid] |
|  |  | 10 nM | 112% |  | 84% | COc1ccc2c(c1)O[C@@H](c1ccc(C(=O)O)cn1)C[C@H]2NC(=O)[C@@]1(C)COc2cc3c(cc21)OC(F)(F)O3 [Example 89, 6-[(2R,4R)-4-{[(7R)-2,2-difluoro-7-methyl-6,7-dihydro-2H-furo[2,3-f][1,3]benzodioxole-7-carbonyl]amino}-7-methoxy-3,4-dihydro-2H-1-benzopyran-2-yl]pyridine-3-carboxylic acid] |
|  |  | 1020 nM | 82% |  |  | CCOC(=O)[C@H]1CC[C@H]([C@@H]2C[C@H](NC(=O)[C@@]3(C)COc4cc5c(cc43)OC(F)(F)O5)c3ccc(OC(F)F)cc3O2)CC1 [Example 159, ethyl trans-4-[(2S,4S)-7-(difluoromethoxy)-4-{[(7R)-2,2-difluoro-7-methyl-6,7-dihydro-2H-furo[2,3-f][1,3]benzodioxole-7-carbonyl]amino}-3,4-dihydro-2H-1-benzopyran-2-yl]cyclohexane-1-carboxylate] |
|  |  | 3210 nM | 137% |  |  | Cc1ccc(NC(=O)[C@@]2(C)COc3cc4c(cc32)OC(F)(F)O4)nc1-c1cccc(C(=O)OC(C)(C)C)c1 [Example 5, tert-butyl 3-(6-{[(7R)-2,2-difluoro-7-methyl-6,7-dihydro-2H-furo[2,3-f][1,3]benzodioxole-7-carbonyl]amino}-3-methylpyridin-2-yl)benzoate] |
|  |  | 2240 nM | 79% |  |  | CCOC(=O)[C@H]1CC[C@H]([C@@H]2C[C@H](NC(=O)[C@@]3(C)COc4cc5c(cc43)OC(F)(F)O5)c3ccc(OC(F)(F)F)cc3O2)CC1 [Example 147, ethyl trans-4-[(2S,4S)-4-{[(7R)-2,2-difluoro-7-methyl-6,7-dihydro-2H-furo[2,3-f][1,3]benzodioxole-7-carbonyl]amino}-7-(trifluoromethoxy)-3,4-dihydro-2H-1-benzopyran-2-yl]cyclohexane-1-carboxylate] |
|  |  | 1260 nM | 65% |  |  | C[C@]1(C(=O)Nc2cc3cc(C4(CO)CCOCC4)n(C[C@@H](O)CO)c3cc2F)COc2cc3c(cc21)OC(F)(F)O3 [Example 170, (7R)—N-{1-[(2R)-2,3-dihydroxypropyl]-6-fluoro-2-[4-(hydroxymethyl)oxan-4-yl]-1H-indol-5-yl}-2,2-difluoro-7-methyl-6,7-dihydro-2H-furo[2,3-f][1,3]benzodioxole-7-carboxamide] |
